Measured values published in patent publication EP0414952A1, “Dithiolane derivatives” (NIHON NOHYAKU CO., LTD., priority 1989, dated 1991).

Test system: carbon tetrachloride-induced hepatic disorders
Assay: Effect of inhibiting carbon tetrachloride-induced hepatic disorders
Assay type: in vivo
Settings: male mice of dd strain, mean of 5 mice; for Hepatic Disorder index: 30 mg/kg orally in olive oil 6 hours before carbon tetrachloride 0.05 ml/kg orally, sacrificed 24 hours after, visual score 0 (healthy liver) to 6 (heavy disorder); for p-GPT(K.U.): plasma glutamic-pyruvic transaminase activity, Reitman-Frankel method, 30 mg/kg orally 6 hours before carbon tetrachloride 0.05 ml/kg orally, 24 hours after, values above 2,100 counted as 2,100
Experimental: Effect of inhibiting carbon tetrachloride-induced hepatic disorders A test compound was dissolved or suspended in olive oil and the resulting solution or suspension was orally administered to male mice (6 week age) of dd strain in a dose of 30 mg/kg. Six hours after the administration, carbon tetrachloride was orally administered to the mice in a dose of 0.05 ml/kg. The mice were sacrificed 24 hours after the administration of carbon tetrachloride. Degree of hepatic disorders was visually examined. On the other hand, blood was collected when they were sacrificed and plasma was obtained by centrifugation. Plasma glutamic-pyruvic transaminase (GPT) activity was determined according to the Reitman-Frankel method and the activity was expressed by Karmen Unit (K.U.). The hepatic disorder index is evaluated as below. [table] Five (5) mice were used in each group and the results are shown by a mean value. Further with respect to GPT activity, no further measurement was conducted with the case showing more than 2,100 units but for brevity, it was calculated as 2,100 units.

## CCN1CCN(C2SC(=C3C(=O)CC(C)(C)CC3=O)SC2OC(C)=O)CC1 (centres unmarked) [Compound No. 19]
  Hepatic Disorder index: 1.0
  p-GPT(K.U.): 297 K.U.

## CC(=O)OC1SC(=C2C(=O)CC(c3ccc(C)cc3)CC2=O)SC1N(C)C (centres unmarked) [Compound No. 30]
  Hepatic Disorder index: 0.5
  p-GPT(K.U.): 229 K.U.

## O=C1CCCC(=O)C1=C1SC(N2CCOCC2)C(N2CCOCC2)S1 (centres unmarked) [Compound No. 2]
  Hepatic Disorder index: 0.5
  p-GPT(K.U.): 12 K.U.

## CN(C)C1SC(=C2C(=O)CC(C)(C)CC2=O)SC1N(C)C (centres unmarked) [Compound No. 3]
  Hepatic Disorder index: 1.6
  p-GPT(K.U.): 49 K.U.

## Cc1ccc(C2CC(=O)C(=C3SC(O)C(N(C)C)S3)C(=O)C2)o1 (centres unmarked) [Compound No. 47]
  Hepatic Disorder index: 1.6
  p-GPT(K.U.): 430 K.U.

## CCC(=O)OC1SC(=C2C(=O)CCCC2=O)SC1N(C)C (centres unmarked) [Compound No. 7]
  Hepatic Disorder index: 0
  p-GPT(K.U.): 15 K.U.

## CCOC(=O)OC1SC(=C2C(=O)CCCC2=O)SC1N(C)C (centres unmarked) [Compound No. 8]
  Hepatic Disorder index: 0
  p-GPT(K.U.): 18 K.U.

## CN(C)C1SC(=C2C(=O)CC(C)(C)CC2=O)SC1O (centres unmarked) [Compound No. 13]
  Hepatic Disorder index: 0.4
  p-GPT(K.U.): 157 K.U.

## CC(=O)OC1SC(=C2C(=O)CC(c3ccco3)CC2=O)SC1N1CCN(C)CC1 (centres unmarked) [Compound No. 46]
  Hepatic Disorder index: 0.2
  p-GPT(K.U.): 205 K.U.

## CN(C)C1SC(=C2C(=O)CCCC2=O)SC1N(C)C (centres unmarked) [Compound No. 1, 2-((4,5-bis(dimethylamino)-1,3-dithiolan)-2-ylidene)-1,3-dioxocyclohexane]
  Hepatic Disorder index: 0.6
  p-GPT(K.U.): 17 K.U.
